Results reported in ChEMBL document CHEMBL3864167, “Structure-Activity Relationship, Drug Metabolism and Pharmacokinetics Properties Optimization, and in Vivo Studies of New Brain Penetrant Triple T-Type Calcium Channel Blockers” (J Med Chem, 2016).
Converted amounts (≈) assume the structure as drawn.

Columns and labels:
[1] = Solubility of the compound at pH 7; format: physicochemical; settings: buffer
[2] = molecular target: Voltage-dependent T-type calcium channel subunit alpha-1G (Homo sapiens, UniProt O43497); experiment: Channel blocking activity at recombinant human CaV 3.1 channel expressed in HEK293 cells assessed as inhibition of Ca2+ flux preincubated for 3 mins followed by CaCl2 addition by fluo-4 dye-based FLIPR assay; format: cell-based
Voltage-dependent T-type calcium channel subunit alpha-1G, sequence (O43497 whole entry): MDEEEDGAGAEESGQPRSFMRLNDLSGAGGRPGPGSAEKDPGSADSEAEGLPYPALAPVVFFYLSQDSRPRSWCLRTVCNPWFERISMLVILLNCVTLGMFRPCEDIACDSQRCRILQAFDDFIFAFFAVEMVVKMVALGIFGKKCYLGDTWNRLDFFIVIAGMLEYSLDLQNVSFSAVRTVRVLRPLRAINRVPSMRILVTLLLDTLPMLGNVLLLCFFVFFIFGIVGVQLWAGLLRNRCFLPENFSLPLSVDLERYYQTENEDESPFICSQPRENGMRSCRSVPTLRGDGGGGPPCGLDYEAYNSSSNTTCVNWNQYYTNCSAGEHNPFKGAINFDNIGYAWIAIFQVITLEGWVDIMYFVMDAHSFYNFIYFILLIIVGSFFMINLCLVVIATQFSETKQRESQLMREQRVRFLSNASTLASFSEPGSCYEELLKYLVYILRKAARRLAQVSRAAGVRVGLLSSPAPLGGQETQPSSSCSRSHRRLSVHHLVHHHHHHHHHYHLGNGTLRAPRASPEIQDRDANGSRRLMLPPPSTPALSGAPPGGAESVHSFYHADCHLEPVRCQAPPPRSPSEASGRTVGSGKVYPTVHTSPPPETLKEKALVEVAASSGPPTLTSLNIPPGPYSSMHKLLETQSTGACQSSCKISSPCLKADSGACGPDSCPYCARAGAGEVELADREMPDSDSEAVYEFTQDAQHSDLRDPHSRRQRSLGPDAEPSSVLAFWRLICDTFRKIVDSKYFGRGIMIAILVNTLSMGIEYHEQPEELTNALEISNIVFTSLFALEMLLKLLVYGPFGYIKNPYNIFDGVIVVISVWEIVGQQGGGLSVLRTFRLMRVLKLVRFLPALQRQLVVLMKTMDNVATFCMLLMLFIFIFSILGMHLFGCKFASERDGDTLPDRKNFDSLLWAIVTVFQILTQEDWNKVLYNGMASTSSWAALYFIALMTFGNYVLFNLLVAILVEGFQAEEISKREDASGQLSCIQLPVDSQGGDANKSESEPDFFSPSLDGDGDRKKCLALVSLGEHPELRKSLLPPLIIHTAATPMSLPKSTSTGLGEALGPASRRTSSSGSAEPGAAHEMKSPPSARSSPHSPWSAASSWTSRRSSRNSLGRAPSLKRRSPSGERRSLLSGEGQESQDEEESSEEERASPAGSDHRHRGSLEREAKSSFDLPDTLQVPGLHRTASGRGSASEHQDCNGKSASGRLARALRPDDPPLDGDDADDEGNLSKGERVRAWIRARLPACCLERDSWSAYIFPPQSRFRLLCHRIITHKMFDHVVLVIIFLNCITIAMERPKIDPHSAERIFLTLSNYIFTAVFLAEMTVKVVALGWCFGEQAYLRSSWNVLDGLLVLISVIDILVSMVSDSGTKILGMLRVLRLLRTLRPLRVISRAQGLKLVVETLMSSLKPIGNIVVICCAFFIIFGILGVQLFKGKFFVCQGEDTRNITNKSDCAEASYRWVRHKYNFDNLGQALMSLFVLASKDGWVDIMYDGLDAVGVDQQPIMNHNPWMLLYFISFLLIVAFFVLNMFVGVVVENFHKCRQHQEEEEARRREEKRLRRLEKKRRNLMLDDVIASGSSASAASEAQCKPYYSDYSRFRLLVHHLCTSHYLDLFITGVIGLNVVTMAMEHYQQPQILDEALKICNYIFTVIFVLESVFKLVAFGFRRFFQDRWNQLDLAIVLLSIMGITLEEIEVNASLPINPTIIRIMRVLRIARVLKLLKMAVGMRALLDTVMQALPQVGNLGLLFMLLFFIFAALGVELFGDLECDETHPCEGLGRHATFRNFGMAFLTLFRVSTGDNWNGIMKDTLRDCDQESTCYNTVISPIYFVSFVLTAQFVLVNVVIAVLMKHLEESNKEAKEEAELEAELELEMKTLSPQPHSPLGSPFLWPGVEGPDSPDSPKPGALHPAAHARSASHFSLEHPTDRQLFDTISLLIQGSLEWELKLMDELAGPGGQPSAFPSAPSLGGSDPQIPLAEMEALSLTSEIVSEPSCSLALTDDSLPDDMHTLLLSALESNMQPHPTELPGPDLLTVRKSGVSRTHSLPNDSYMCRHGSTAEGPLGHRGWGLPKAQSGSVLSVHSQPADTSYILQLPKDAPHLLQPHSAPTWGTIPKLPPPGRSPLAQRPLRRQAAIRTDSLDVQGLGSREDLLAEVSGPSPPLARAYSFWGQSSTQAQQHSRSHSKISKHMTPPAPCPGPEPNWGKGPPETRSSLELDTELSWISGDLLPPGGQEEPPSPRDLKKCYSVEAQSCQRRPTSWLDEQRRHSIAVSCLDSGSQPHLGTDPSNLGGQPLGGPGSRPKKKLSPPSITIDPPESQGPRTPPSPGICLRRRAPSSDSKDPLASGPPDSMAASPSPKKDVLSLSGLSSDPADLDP

[3] = molecular target: Voltage-dependent T-type calcium channel subunit alpha-1H (Homo sapiens, UniProt O95180); experiment: Channel blocking activity at recombinant human CaV 3.2 channel expressed in HEK293 cells assessed as inhibition of Ca2+ flux preincubated for 3 mins followed by CaCl2 addition by fluo-4 dye-based FLIPR assay; format: cell-based
Voltage-dependent T-type calcium channel subunit alpha-1H, sequence (O95180 whole entry): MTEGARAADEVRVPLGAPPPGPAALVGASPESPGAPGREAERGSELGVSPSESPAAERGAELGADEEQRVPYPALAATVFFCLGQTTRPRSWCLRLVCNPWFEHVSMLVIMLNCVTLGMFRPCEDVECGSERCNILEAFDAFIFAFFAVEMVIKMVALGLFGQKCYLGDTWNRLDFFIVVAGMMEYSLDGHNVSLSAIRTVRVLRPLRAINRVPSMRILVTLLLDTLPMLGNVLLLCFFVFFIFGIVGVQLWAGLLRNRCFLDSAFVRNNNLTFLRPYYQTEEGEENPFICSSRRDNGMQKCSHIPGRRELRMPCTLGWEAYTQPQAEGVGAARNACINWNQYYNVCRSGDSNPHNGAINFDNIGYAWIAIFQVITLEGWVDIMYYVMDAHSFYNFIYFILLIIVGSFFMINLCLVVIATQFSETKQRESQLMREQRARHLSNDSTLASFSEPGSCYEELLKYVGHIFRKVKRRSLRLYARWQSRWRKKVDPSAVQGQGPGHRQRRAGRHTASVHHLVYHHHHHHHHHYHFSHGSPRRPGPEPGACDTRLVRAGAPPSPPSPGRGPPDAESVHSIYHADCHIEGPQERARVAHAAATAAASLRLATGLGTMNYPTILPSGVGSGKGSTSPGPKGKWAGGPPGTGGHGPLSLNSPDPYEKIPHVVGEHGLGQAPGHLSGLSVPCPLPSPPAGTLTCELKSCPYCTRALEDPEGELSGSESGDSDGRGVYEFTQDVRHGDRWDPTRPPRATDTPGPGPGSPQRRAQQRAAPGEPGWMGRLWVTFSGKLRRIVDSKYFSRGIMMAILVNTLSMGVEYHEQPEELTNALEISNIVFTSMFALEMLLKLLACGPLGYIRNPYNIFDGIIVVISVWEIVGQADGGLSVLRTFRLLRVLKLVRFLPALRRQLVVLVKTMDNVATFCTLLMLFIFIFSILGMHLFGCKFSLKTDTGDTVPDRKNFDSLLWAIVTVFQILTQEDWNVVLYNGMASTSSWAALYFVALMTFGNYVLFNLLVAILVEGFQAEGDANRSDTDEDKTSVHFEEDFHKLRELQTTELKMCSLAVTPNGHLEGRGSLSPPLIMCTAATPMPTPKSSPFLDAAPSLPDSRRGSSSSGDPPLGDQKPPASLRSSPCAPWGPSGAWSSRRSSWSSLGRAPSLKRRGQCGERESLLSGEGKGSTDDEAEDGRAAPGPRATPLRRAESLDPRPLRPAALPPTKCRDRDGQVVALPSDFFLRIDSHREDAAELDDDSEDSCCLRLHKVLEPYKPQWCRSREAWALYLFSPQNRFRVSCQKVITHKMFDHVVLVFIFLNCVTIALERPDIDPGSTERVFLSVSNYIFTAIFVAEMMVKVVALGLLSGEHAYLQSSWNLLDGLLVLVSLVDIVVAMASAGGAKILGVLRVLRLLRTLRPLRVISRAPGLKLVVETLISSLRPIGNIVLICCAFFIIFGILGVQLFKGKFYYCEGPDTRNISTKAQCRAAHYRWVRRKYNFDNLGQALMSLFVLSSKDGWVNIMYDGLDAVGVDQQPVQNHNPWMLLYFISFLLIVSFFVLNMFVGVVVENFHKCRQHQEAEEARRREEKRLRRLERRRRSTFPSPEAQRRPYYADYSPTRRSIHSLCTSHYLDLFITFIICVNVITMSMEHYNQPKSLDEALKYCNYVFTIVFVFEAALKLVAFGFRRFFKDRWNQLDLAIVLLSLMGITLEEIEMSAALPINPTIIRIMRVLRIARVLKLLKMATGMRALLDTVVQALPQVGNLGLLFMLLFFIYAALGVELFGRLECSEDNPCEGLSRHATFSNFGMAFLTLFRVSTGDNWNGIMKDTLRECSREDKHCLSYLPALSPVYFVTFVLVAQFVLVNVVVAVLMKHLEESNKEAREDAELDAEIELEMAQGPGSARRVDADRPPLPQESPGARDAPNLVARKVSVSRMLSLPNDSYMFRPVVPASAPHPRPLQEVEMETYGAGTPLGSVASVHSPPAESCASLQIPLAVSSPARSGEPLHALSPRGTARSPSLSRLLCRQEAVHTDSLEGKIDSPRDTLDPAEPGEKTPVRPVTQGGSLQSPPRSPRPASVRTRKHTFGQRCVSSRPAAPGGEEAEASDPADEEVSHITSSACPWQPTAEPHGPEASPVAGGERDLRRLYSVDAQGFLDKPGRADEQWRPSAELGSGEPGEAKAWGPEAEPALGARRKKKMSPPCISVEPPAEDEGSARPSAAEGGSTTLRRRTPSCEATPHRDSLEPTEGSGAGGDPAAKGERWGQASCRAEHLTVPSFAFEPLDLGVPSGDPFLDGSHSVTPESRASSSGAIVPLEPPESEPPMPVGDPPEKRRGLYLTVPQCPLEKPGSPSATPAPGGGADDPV

[4] = molecular target: Voltage-dependent T-type calcium channel subunit alpha-1I (Homo sapiens, UniProt Q9P0X4); experiment: Channel blocking activity at recombinant human CaV 3.3 channel expressed in HEK293 cells assessed as inhibition of Ca2+ flux preincubated for 3 mins followed by CaCl2 addition by fluo-4 dye-based FLIPR assay; format: cell-based
[5] = Intrinsic clearance in human liver microsomes at 1 uM up to 15 mins in presence of NADPH by LC-MS-MS analysis; format: ADME; settings: read-out: CLH
[6] = test system: MDR1; experiment: Apparent permeability from apical side to basolateral side in MDCK1 cells expressing MDR1; format: ADME, cell-based, Canis lupus familiaris; settings: dog, MDCK-MDR1
[7] = test system: MDR1; experiment: Apparent permeability from basolateral side to apical side in MDCK1 cells expressing MDR1; format: ADME, cell-based, Canis lupus familiaris; settings: dog, MDCK-MDR1
[8] = test system: MDR1; experiment: Efflux ratio for apparent permeability in MDCK1 cells expressing MDR1; format: ADME, cell-based, Canis lupus familiaris; settings: dog, MDCK-MDR1
[9] = Dissociation constant, pKa of compound; format: physicochemical
[10] = Intrinsic clearance in Wistar rat liver microsomes at 1 uM up to 15 mins in presence of NADPH by LC-MS-MS analysis; format: ADME; settings: read-out: CLH

| SMILES | solubility [1] [µg/mL] | IC50 [2] [nM] | IC50 [3] [nM] | IC50 [4] [nM] | microsomal CLint at 1 µM [5] [µL/min/mg] | Papp A→B [6] [×10⁻⁶ cm/s] | Papp B→A [7] [×10⁻⁶ cm/s] | efflux ratio [8] | pKa [9] | microsomal CLint at 1 µM [10] [µL/min/mg] |
| --- | --- | --- | --- | --- | --- | --- | --- | --- | --- | --- |
| C[C@@H]1CN(CC2CCCCO2)c2ccccc2[C@H](C)N1C(=O)Nc1cccnc1 (mixture of isomers) | 248 | 875 | 2670 | 243 | 720 |  |  |  |  |  |
| C[C@@H]1CN(Cc2ccccc2)c2cnccc2[C@H](C)N1C(=O)Nc1cccnc1 (racemic) |  | 360 | 860 | 306 | 93 |  |  |  |  | 562 |
| C[C@@H]1CN(Cc2ccc(C(F)(F)F)o2)c2cnccc2[C@H](C)N1C(=O)NCc1ccccc1 (racemic) |  | 37 | 44 | 10 | 247 |  |  |  |  | 1180 |
| [2H]C([2H])(c1ccccc1)N1C[C@@H](C)N(C(=O)Nc2cccnc2)[C@@H](C)c2ccncc21 (racemic) |  | 441 | 815 | 148 | 59 |  |  |  |  | 855 |
| COc1ccc(CNC(=O)N2[C@H](C)CN(Cc3ccccc3)c3cnccc3[C@@H]2C)cc1 (racemic) |  | 79 | 48 | 12 | 189 |  |  |  |  | 1140 |
| C[C@@H]1CN(CCOC(C)(C)C)c2ccccc2[C@H](C)N1C(=O)Nc1cccnc1 (racemic) | 81 (≈ 204 µM) | 108 | 91 | 23 | 1230 |  |  |  |  |  |
| C[C@@H]1CN(Cc2ccccc2)c2ccccc2[C@H](C)N1C(=O)NC1COC1 (racemic) | 148 (≈ 405 µM) | 26 | 61 | 12 | 539 |  |  |  |  |  |
| C[C@@H]1CN(Cc2ccc(F)cc2)c2ccccc2[C@H](C)N1C(=O)Nc1cccnc1 (racemic) |  | 25 | 31 | 7 | > 1250 |  |  |  |  |  |
| C[C@@H]1CN(Cc2ccccc2)c2ccccc2[C@H](C)N1C(=O)C1CCOCC1 (racemic) |  | 24 | 47 | 8 | 1160 |  |  |  |  |  |
| C[C@@H]1CN(Cc2ccc(F)c(F)c2)c2ccccc2[C@H](C)N1C(=O)Nc1cccnc1 (racemic) |  | 13 | 18 | 6 | > 1250 |  |  |  |  |  |
| C[C@@H]1CN(Cc2ccccc2)c2ccccc2[C@H](C)N1C(=O)Cc1cncs1 (racemic) | 21 to 39 (≈ 53.6 to 99.6 µM) | 34 | 55 | 6 | > 1250 |  |  |  |  |  |
| C[C@@H]1CN(Cc2ccccc2)c2cnccc2[C@H](C)N1C(=O)CCc1ccc(F)cc1 (racemic) |  | 196 | 225 | 25 | 907 |  |  |  |  | > 1250 |
| C[C@@H]1CN(Cc2ccccc2)c2ccccc2C(=O)N1CCc1ccccc1 (racemic) |  | 676 | 618 | 1590 | > 1250 |  |  |  |  |  |
| C[C@@H]1CN(Cc2ccc(C(F)(F)F)o2)c2ccccc2[C@H](C)N1C(=O)Nc1cccnc1 (racemic) |  | 4 | 14 | 9 | > 1250 |  |  |  |  |  |
| C[C@@H]1CN(Cc2ccccc2)c2cc(F)cc(F)c2[C@H](C)N1C(=O)Nc1cccnc1 (racemic) |  | 12 | 22 | 8 | 873 |  |  |  |  |  |
| C[C@@H]1CN(Cc2ccccc2)c2cccc(F)c2[C@H](C)N1C(=O)Nc1cccnc1 (racemic) |  | 20 | 52 | 10 | 628 |  |  |  |  |  |
| C[C@@H]1CN(Cc2ccccc2)c2cccc(F)c2[C@H](C)N1C(=O)NC1COC1 (racemic) |  | 40 | 59 | 13 | 375 |  |  |  |  |  |
| CC(C)CCN1C[C@@H](C)N(C(=O)Nc2cccnc2)[C@@H](C)c2ccccc21 (racemic) |  | 23 | 91 | 12 | > 1250 |  |  |  |  |  |
| C[C@@H]1CN(Cc2ccccc2)c2ccccc2[C@H](C)N1C(=O)N1CCOCC1 (racemic) | 21 to 39 (≈ 55.3 to 103 µM) | 26 | 58 | 9 | > 1250 |  |  |  |  |  |
| C[C@@H]1CN(Cc2ccccc2)c2cc(OCC(F)(F)F)ccc2[C@H](C)N1C(=O)Nc1cccnc1 (racemic) |  | 187 | 790 | 3560 | > 1250 |  |  |  |  |  |
| C[C@@H]1CN(Cc2cnc(C(F)(F)F)s2)c2cccc(F)c2[C@H](C)N1C(=O)CCc1cccnc1 (racemic) |  | 115 | 93 | 20 | 193 |  |  |  |  |  |
| COc1ccc(CNC(=O)N2[C@H](C)CN(Cc3ccc(C(F)(F)F)o3)c3cnccc3[C@@H]2C)cc1 (racemic) |  | 13 | 24 | 11 | 119 |  |  |  |  | 447 |
| COc1ccc2c(c1)[C@H](C)N(C(=O)Nc1cccnc1)[C@H](C)CN2Cc1ccccc1 (racemic) |  | 390 | 530 | 100 | 521 |  |  |  |  |  |
| C[C@@H]1CN(Cc2cnc(C(F)(F)F)s2)c2ccccc2[C@H](C)N1C(=O)Nc1cccnc1 (racemic) |  | 33 | 42 | 33 | > 1250 |  |  |  |  |  |
| C[C@@H]1CN(Cc2ccccc2)c2ccccc2[C@H](C)N1C(=O)Nc1cccnc1 (racemic) | 21 to 39 (≈ 54.3 to 101 µM) | 42 | 61 | 14 | > 1250 |  |  |  |  |  |
| CC(C)CCN1C[C@@H](C)N(C(=O)CCc2cccnc2)[C@@H](C)c2c(F)cccc21 (racemic) |  | 45 | 66 | 52 | 357 |  |  |  |  |  |
| C[C@@H]1CN(Cc2ccccc2)c2ccc(F)cc2[C@H](C)N1C(=O)Nc1cccnc1 (racemic) |  | 68 | 112 | 8 | > 1250 |  |  |  |  |  |
| C[C@@H]1CN(Cc2ccccc2F)c2ccccc2[C@H](C)N1C(=O)Nc1cccnc1 (racemic) |  | 4 | 11 | 5 | 1200 |  |  |  |  |  |

Second part, the compound after the results:

| solubility [1] [µg/mL] | IC50 [2] [nM] | IC50 [3] [nM] | IC50 [4] [nM] | microsomal CLint at 1 µM [5] [µL/min/mg] | Papp A→B [6] [×10⁻⁶ cm/s] | Papp B→A [7] [×10⁻⁶ cm/s] | efflux ratio [8] | pKa [9] | microsomal CLint at 1 µM [10] [µL/min/mg] | SMILES |
| --- | --- | --- | --- | --- | --- | --- | --- | --- | --- | --- |
|  | 140 | 72 | 9 | 185 | 26.3 | 61 | 2.3 | 4.2 |  | C[C@@H]1CN(Cc2ccccc2)c2cncc(F)c2[C@H](C)N1C(=O)NCc1ccccc1 (racemic) |
|  | 260 | 230 | 15 | 186 |  |  |  |  | > 1250 | [2H]C([2H])(c1ccccc1)N1C[C@@H](C)N(C(=O)NCc2ccccc2)[C@@H](C)c2ccncc21 (racemic) |
|  | 47 | 95 | 31 | 179 |  |  |  |  | > 1250 | C[C@@H]1CN(Cc2ccccc2F)c2cnccc2[C@H](C)N1C(=O)NCc1ccccc1 (racemic) |
|  | 102 | 141 | 26 | > 1250 |  |  |  |  |  | C[C@@H]1CN(Cc2ccccc2)c2ccccc2CN1C(=O)NCc1ccccc1 (racemic) |
|  | 279 | 340 | 95 | > 1250 |  |  |  |  |  | C[C@H]1CN(Cc2ccccc2)c2ccccc2[C@H](C)N1C(=O)NCc1ccccc1 (racemic) |
|  | 7 | 13 | 6 | > 1250 |  |  |  |  |  | C[C@@H]1CN(Cc2ccc(C(F)(F)F)o2)c2ccccc2[C@H](C)N1C(=O)NCc1ccccc1 (racemic) |
|  | 57 | 104 | 281 | 531 |  |  |  |  |  | C[C@@H]1CN(Cc2ccccc2)c2nc(C(F)(F)F)ccc2[C@H](C)N1C(=O)NCc1ccccc1 (racemic) |
|  | 16 | 36 | 22 | 1000 |  |  |  |  |  | C[C@@H]1CN(Cc2ccccc2)c2nc(Cl)ccc2[C@H](C)N1C(=O)NCc1ccccc1 (racemic) |
|  | 78 | 68 | 46 | 409 |  |  |  |  |  | C[C@@H]1CN(Cc2ccccc2)c2ncc(Cl)cc2[C@H](C)N1C(=O)NCc1ccccc1 (racemic) |
|  | 15 | 31 | 8 | 1060 |  |  |  |  |  | C[C@@H]1CN(Cc2ccccc2)c2ncccc2[C@H](C)N1C(=O)NCc1ccccc1 (racemic) |
|  | 256 | 209 | 225 | > 1250 |  |  |  |  |  | C[C@@H]1CN(c2ccccc2)c2ccccc2[C@H](C)N1C(=O)NCc1ccccc1 (racemic) |
|  | 25 | 42 | 14 | > 1250 |  |  |  |  |  | C[C@@H]1CN(Cc2cccc(C(F)(F)F)n2)c2ccccc2[C@H](C)N1C(=O)NCc1ccccc1 (racemic) |
|  | 304 | 682 | 259 | > 1250 |  |  |  |  |  | C[C@@H]1C(=O)N(Cc2ccccc2)c2ccccc2[C@H](C)N1C(=O)NCc1ccccc1 (racemic) |
|  | 45 | 33 | 10 | > 1250 |  |  |  |  |  | COc1ccc(CN2C[C@@H](C)N(C(=O)NCc3ccccc3)[C@@H](C)c3ccccc32)cn1 (racemic) |
